These are literature values, as cited in patent publication EP2479272A1, “METHOD FOR PRODUCING MONATIN” (Ajinomoto Co., Inc., priority 2010, dated 2012).

The conditions of the data set: compared with sucrose; from Patent Document 1.

As for `N[C@@H](CC(O)(Cc1c[nH]c2ccccc12)C(=O)O)C(=O)O` (stereo partly shown) [Monatin, 4-(indole-3-yl-methyl)-4-hydroxy-glutamic acid], the sweetness result was “one thousand and several hundreds times sweeter than sucrose”.
